Literature values as cited in patent US20220313139A1, “APPARATUSES AND METHODS FOR IDENTIFICATION AND TREATMENT OF PATIENTS RESPONSIVE TO ANTIPSYCHOTIC AGENT THERAPY” (priority 2019, published 2022).

Key:
[1] = test system: patients; settings: early phase II monotherapy trial
[2] = test system: patients; settings: clinical studies, halted
[3] = in humans

For CSCC[C@H](N)C(=O)N[C@@]1(C(=O)O)CS(=O)(=O)[C@H]2[C@H](C(=O)O)[C@H]21 [poma, Pomaglumetad methionil], the “dosage shown to be efficacious” value [1] is listed as 40 mg BID and the “efficacy versus placebo as determined with PANSS total scores” value [2] is listed as “not significantly more efficacious than the placebo”.
For N[C@@]1(C(=O)O)CS(=O)(=O)[C@H]2[C@H](C(=O)O)[C@H]21 [pomaglumetad], the “oral absorption and bioavailability” value [3] is given as “low oral absorption and bioavailability”.
